EP2149557A1, “Styrylquinolines, their process of preparation and their therapeutic uses” (BioAlliance Pharma, priority 2008, dated 2010)

Experiments:
HeLa-P4 cell = assay: Viability assay (cytotoxicity, MTT); type: cell-based; settings: 2 days, comparative compound table, read-out: Cytotoxicity IC50
Method: (§1) The cytotoxicity of compounds was evaluated using un-infected and infected HeLa-P4 cell and CEM leukemia cells. CEM cell were obtained from the […] (Rockville, MD). A serial dilution of drugs is done to evaluate the cytotoxicity concentration and is identified by CC50 (concentration of drug which induces 50% of cytotoxicity) The HeLa-P4 was cultured in the presence or absence of compounds for 2 days. After this time period, cells were cultivated with MTT for 3 hours, further the medium is removed. And the lysis buffer is incubated for 1 hour, followed by plate reading at 540 nm in a microplate reader.

HBX2 HIV integrase [1] = target: T1, HBX2 HIV integrase (Human immunodeficiency virus type 1 group M subtype B, UniProt P04585); assay: 3' LTR processing assay; type: biochemical; settings: 3' processing, IN 200nM, substrate DNA 12.5 nM, up to 2 h at 37°C
Method: For processing, strand transfer, 100 pmol of U5B, U5B-2, respectively, were radiolabeled using T4 polynucleotide kinase and 50 µCi of [γ-32P]ATP (3000 Ci/mmol). The T4 kinase was heat inactivated, and unincorporated nucleotides were removed using a Sephadex G-10 column (GE HealthCare). NaCl was added to a final concentration of 0.1 M, and complementary unlabeled strand U5A was added to either U5B or U5B-2. The mixture was heated to 90°C for 3 min, and the DNA was annealed by slow cooling.
Processing reaction was performed using U5A-U5B, in buffer containing 20 mM Tris (pH 7.2), 50 mM NaCl, 10 mM DTT, and 10mM MgCl2. […] The reactions were stopped by phenol/chloroform extraction, and DNA products were precipitated with ethanol. The products were separated in TE containing 7 M urea and electrophoresed on an 18% denaturing acrylamide/urea gel. Gels were analyzed using a STORM Molecular Dynamics phosphorimager and quantified with Image Quant™ 4.1 software.

HBX2 HIV integrase [2] = target: T1, HBX2 HIV integrase; assay: Strand transfer assay; type: biochemical; settings: IN 200nM, substrate DNA 12.5 nM, up to 2 h at 37°C, read-out: Transfert IC50
Method: The pET-15b-IN plasmid contains the cDNA encoding the HBX2 HIV integrase. His-tagged integrase protein was overexpressed in Escherichia coli BL21 (DE3) and purified under native conditions. Briefly, at an OD of 0.8, fusion protein expression was induced in bacterial cultures by the addition of IPTG (1 mM). Cultures were incubated for 3 h at 37°C, after which cells were centrifuged. The cell pellet was resuspended in ice-cold buffer A [20 mM Tris-HCl (pH 8), 1 M NaCl, 4 mM β-mercaptoethanol, and 5 mM imidazole], treated with lysozyme for 1 h on ice, and sonicated. After centrifugation (30 min at 10 000 rpm), the supernatant was filtered (0.45 µm) and incubated for at least 2 h with Ni-NTA agarose beads (Pharmacia). The beads were washed twice with 10 volumes of buffer A, 10 volumes of buffer A with 50 mM imidazole, and 10 volumes of buffer A with 100 mM imidazole. His-tagged integrase was then eluted with buffer A supplemented with 50 µM ZnS04 and 1 M imidazole. […]
Processing, strand transfer reactions were performed using U5A-U5B-2, in buffer containing 20 mM Tris (pH 7.2), 50 mM NaCl, 10 mM DTT, 10mM MgCl2. […] Gels were analyzed using a STORM Molecular Dynamics phosphorimager and quantified with Image Quant™ 4.1 software.

[3] = test system: wild type HIV-1 virus (NL 4.3 strains); assay: Antiviral activity assay on Hela P4 cells (beta-galactosidase, CPRG); type: cell-based; settings: Human immunodeficiency virus 1; HelaP4 cells, 48 hours incubation
Method: The antiviral activity is determined by infecting HelaP4 cells with a wild type HIV-1 virus (NL 4.3 strains at 3 ng) on cells in presence or absence of drugs. A serial dilution of drugs is done to evaluate the EC50. The effective concentration is the concentration of product at which virus replication is inhibited by 50 percent. After 48 hours incubation, the quantification is done by the evaluation of β-Galactosidase produced by the infected Hela P4 cells. The viral activity is evaluated by colorimetric assay, CPRG, followed by plate reading at 570 nm with a reference of 690 nm. The CPRG test is a colorimetric assay which allows to quantity the β-galactosidase produced by HIV-1 infected indicator cells (the β-Gal gene being under the control of the HIV-1 LTR).

[4] = Viability assay (cytotoxicity, MTT); type: cell-based; settings: human, HeLa-P4 cells, read-out: Cytoto -xicity IC50
Method: as §1

SMILES | CC50 (HeLa-P4 cell) [µM] | IC50 (HBX2 HIV integrase [1]) [µM] | IC50 (HBX2 HIV integrase [2]) [µM] | IC50 [3] [µM] | IC50 at 2 days [4] [µM]
COc1cc(/C=C/c2ccc3ccc(C(=O)O)c(O)c3n2)cc(O)c1O [FZ41, reference compound] | > 100 |  |  |  | 
CC(=O)c1ccc2ccc(/C=C/c3cc(O)c(O)cc3O)nc2c1O [SQE 95, (E)-1-(8-hydroxy-2-(2,4,5-trihydroxystyryl)quinolin-7-yl)ethanone] |  | 0.199 | 0.199 | 13.8 | 12.5
